Reference: patent US20190127359A1, “Compounds & Methods for the Enhanced Degradation of Targeted Proteins & Other Polypeptides by an E3 Ubiquitin Ligase” (YALE UNIVERSITY, priority 2012, published 2019)

Target: VHL (Homo sapiens, UniProt P40337)
Experiment: Fluorescence polarization competition assay (HIF-1α peptide FP displacement)

Row | Compound | IC50 (IC50 (μM) 1% DMSO, 1% DMSO) [µM] | IC50 (IC50 (μM) 10% DMSO, 10% DMSO) [µM] | IC50 (μM) 10% DMSO (10% DMSO)
1 | Cn1cc(CC(=O)N2C[C@H](O)C[C@H]2C(=O)NCc2ccc(Cl)cc2)cn1 [VL157] | 360 | 372 | 
2 | Cc1cc(CC(=O)N2C[C@H](O)C[C@H]2C(=O)NCc2ccc(-c3cnc[nH]3)cc2)on1 [VL158] | 180 | 266 | 
3 | CS(=O)(=O)N1C[C@H](O)C[C@H]1C(=O)Nc1ccc(Br)cc1F [VL010] |  |  | Inactive
4 | Cc1cc(CC(=O)N2C[C@H](O)C[C@H]2C(=O)NCc2ccc(C(=O)OCC3CC3)cc2)on1 [VL091] |  | 23 | 
5 | Cc1cc(CC(=O)N2C[C@H](O)C[C@H]2C(=O)N[C@@H](CO)c2ccc(Cl)cc2)on1 [VL161] | 35 | 36.4 | 
6 | O=C(NCc1ccc(Cl)cc1)[C@@H]1C[C@@H](O)CN1C(=O)c1ccccc1-c1cnco1 [VL121] | > 1000 | > 1000 | 
7 | CCCNC(=O)OC[C@@H](NC(=O)[C@@H]1C[C@@H](O)CN1C(=O)Cc1cc(C)no1)c1ccc(Cl)cc1 [VL163] | 610 | 508 | 
8 | Cc1cc(CC(=O)N2C[C@H](O)C[C@H]2C(=O)NCc2cccc(-c3cc[nH]c3)c2)on1 [VL134] | 54 | 48.1 | 
9 | Cc1cc(CC(=O)N2C[C@H](O)C[C@H]2C(=O)N(C)Cc2ccc(Cl)cc2)on1 [VL147] | > 1000 | > 1000 | 
10 | Cc1c(N)cccc1C(=O)N1C[C@H](O)C[C@H]1C(=O)NCc1ccc(Cl)cc1 [VL071] |  | 10.4 | 
11 | Cc1cc(CC(=O)N2C[C@H](O)C[C@H]2C(=O)NCc2ccc(-c3c[nH]nn3)cc2)on1 [VL140] | 17 | 10.3 | 
12 | O=C(NCc1ccc(Cl)cc1)[C@@H]1C[C@@H](O)CN1C(=O)c1ccnc(Cl)c1 [VL099] |  | 39.6 | 
13 | N#Cc1cc(S(=O)(=O)N2C[C@H](O)C[C@H]2C(=O)NCc2ccc(Cl)cc2)ccc1F [VL063] |  | > 1000 | 
14 | O=C(NCc1ccc(Cl)cc1)[C@@H]1C[C@@H](O)CN1C(=O)Cc1ccco1 [VL052] |  | > 1000 | 
15 | O=C(NCc1cccc(Cl)c1)[C@@H]1C[C@@H](O)CN1C(=O)Cc1nnn[nH]1 [VL012] |  | > 1000 | 
16 | O=C(NCc1ccc(Cl)cc1)[C@@H]1C[C@@H](O)CN1C(=O)c1cccc2[nH]cnc12 [VL125] | 568 | 790 | 
17 | Cc1cc(CC(=O)N2C[C@H](O)C[C@H]2C(=O)NCc2ccc(S(N)(=O)=O)cc2)on1 [VL087] |  | 103 | 
18 | COC(=O)Cc1cn(CC(=O)N2C[C@H](O)C[C@H]2C(=O)NCc2ccc(-c3ccccc3)cc2)nn1 [VL136] | 540 | 28.2 | 
19 | Cc1cc(CC(=O)N2C[C@H](O)C[C@H]2C(=O)OCc2ccc(-c3ccccc3)cc2)on1 [VL142] | > 1000 | 780 | 
20 | Cc1cc(CC(=O)N2C[C@H](O)C[C@H]2C(=O)NCc2cccc3ccccc23)on1 [VL086] |  | 168 | 
21 | O=C(NCc1ccc(Cl)cc1)[C@@H]1C[C@@H](O)CN1C(=O)c1ccc2cn[nH]c2c1 [VL127] | 73 | 47.7 | 
22 | Cc1cc(CCN2C[C@H](O)C[C@H]2C(=O)NCc2ccc(-c3ccccc3)cc2)on1 [VL145] | > 1000 | > 1000 | 
23 | Cc1cc(CC(=O)N2C[C@H](O)C[C@H]2C(=O)NCc2ccc(-c3c(C)n[nH]c3C)cc2)on1 [VL152] | 32 | 22.8 | 

Row | Compound | IC50 (IC50 (μM) 1% DMSO, 1% DMSO) [µM] | IC50 (IC50 (μM) 10% DMSO, 10% DMSO) [µM] | IC50 (μM) 10% DMSO (10% DMSO)
24 | O=C(NCc1ccc(Cl)cc1)[C@@H]1C[C@@H](O)CN1C(=O)c1ccccc1 [VL064] |  | 110 | 
25 | O=C(NCc1ccc(Cl)cc1)[C@@H]1C[C@@H](O)CN1C(=O)c1cc(-c2ccccc2)on1 [VL060] |  | > 1000 | 
26 | COc1ccc(Cn2cncc2-c2ccc(CNC(=O)[C@@H]3C[C@@H](O)CN3C(=O)Cc3cc(C)no3)cc2)cc1 [VL132] | 85 | 77.7 | 
27 | O=C(NCc1ccc(Cl)cc1)[C@@H]1C[C@@H](O)CN1C(=O)c1ccc([N+](=O)[O-])c(O)c1 [VL084] |  | 460 | 
28 | CCOC(=O)Cn1cc(-c2cccc(C(=O)N3C[C@H](O)C[C@H]3C(=O)NCc3ccc(Cl)cc3)c2)nn1 [VL148] | 113 | 23.8 | 
29 | O=C(NCc1ccc(Cl)cc1)[C@@H]1C[C@@H](O)CN1C(=O)c1ccncc1 [VL096] |  | 32.5 | 
30 | Cc1cc(CC(=O)N2C[C@H](O)C[C@H]2C(=O)NCc2ccc(-c3ccc(F)nc3)cc2)on1 [VL151] | 33 | 11 | 
31 | Nc1ccccc1C(=O)N1C[C@H](O)C[C@H]1C(=O)NCc1ccc(Cl)cc1 [VL070] |  | 38.2 | 
32 | O=C(NCc1ccc(Cl)cc1)[C@@H]1C[C@@H](O)CN1C(=O)c1cccc2[nH]ccc12 [VL124] | 670 | 990 | 
33 | Cc1cc(CC(=O)N2C[C@H](O)C[C@H]2C(=O)NCc2ccc(C(=O)C(C)C)cc2)on1 [VL089] |  | 40.8 | 
34 | O=C(NCCc1ccc(O)cc1)[C@@H]1C[C@@H](O)CN1C(=O)Cc1nnn[nH]1 [VL005] |  | > 1000 | 
35 | O=C(NCc1ccc(Cl)cc1)[C@@H]1C[C@@H](O)CN1C(=O)c1ccc(Cl)cc1Br [VL081] |  | 15.5 | 
36 | Cc1cc(CC(=O)N2C[C@H](O)C[C@H]2C(=O)NCc2cccc(-c3scnc3C)c2)on1 [VL115] | 19 | 17 | 
37 | COC(=O)Cc1cn(-c2ccccc2C(=O)N2C[C@H](O)C[C@H]2C(=O)NCc2ccc(Cl)cc2)nn1 [VL153] |  | 978 | 
38 | Nc1ccc(C(=O)N2C[C@H](O)C[C@H]2C(=O)NCc2ccc(Cl)cc2)cc1 [VL072] |  | 29.5 | 
39 | O=C(NCc1ccc(Cl)cc1)[C@@H]1C[C@@H](O)CN1C(=O)Cn1ccnc1 [VL156] | > 1000 | > 1000 | 
40 | Cc1cc(CC(=O)N2C[C@H](O)C[C@H]2C(=O)N2CCc3ccccc3C2)on1 [VL039] |  | > 1000 | 
41 | CON(C)C(=O)c1ccc(CNC(=O)[C@@H]2C[C@@H](O)CN2C(=O)Cc2cc(C)no2)cc1 [VL093] |  | 510 | 
42 | COc1cccc(CNC(=O)[C@@H]2C[C@@H](O)CN2C(=O)Cc2cc(C)no2)c1 [VL024] |  | 511 | 
43 | O=C(NCc1ccc(Cl)cc1)[C@@H]1C[C@@H](O)CN1C(=O)CN1C(=O)CSC1=S [VL108] |  | 347 | 
44 | COc1ccc(C(=O)N2C[C@H](O)C[C@H]2C(=O)NCc2ccc(Cl)cc2)cc1OC [VL069] |  | 23.8 | 
45 | Cc1cc(CC(=O)N2C[C@H](O)C[C@H]2C(=O)N[C@H](CO)c2ccc(Cl)cc2)on1 [VL162] |  | 235 | 
46 | Cc1cc(CC(=O)N2C[C@H](O)C[C@H]2C(=O)NCc2ccc(N(C)C)cc2)on1 [VL018] |  | 280 | 

Row | Compound | IC50 (IC50 (μM) 1% DMSO, 1% DMSO) [µM] | IC50 (IC50 (μM) 10% DMSO, 10% DMSO) [µM] | IC50 (μM) 10% DMSO (10% DMSO)
47 | N#Cc1cccc(C(=O)N2C[C@H](O)C[C@H]2C(=O)NCc2ccc(Cl)cc2)c1 [VL077] |  | 8.9 | 
48 | Cc1cc(CC(=O)N2C[C@H](O)C[C@H]2C(=O)NCc2ccc(C(F)(F)F)cc2)on1 [VL046] |  | 215 | 
49 | O=C(NCc1ccc(Cl)cc1)[C@@H]1C[C@@H](O)CN1C(=O)c1ccc(Cl)cc1 [VL074] |  | 42.9 | 
50 | O=C(NCc1ccc(Cl)cc1)[C@@H]1C[C@@H](O)CN1C(=O)Cc1ccncc1 [VL062] |  | > 1000 | 
51 | O=C(NCc1ccc(Cl)cc1)[C@@H]1C[C@@H](O)CN1C(=O)c1cccc(F)c1 [VL075] |  | 35.5 | 
52 | O=C(NCc1ccc(Cl)cc1)[C@@H]1C[C@@H](O)CN1C(=O)c1cccc(-c2ncc[nH]2)c1 [VL123] | 404 | 560 | 
53 | O=C(NCc1ccc(Cl)cc1)[C@@H]1C[C@@H](O)CN1C(=O)Cc1cccnc1 [VL105] |  | > 1000 | 
54 | Cc1cc(CC(=O)N2C[C@H](O)C[C@H]2C(=O)OCc2ccc(Cl)cc2)on1 [VL144] | > 1000 | > 1000 | 
55 | Cc1cc(CC(=O)N2C[C@H](O)C[C@H]2C(=O)N[C@@H](C)c2ccc([N+](=O)[O-])cc2)on1 [VL049] |  | 15.1 | 
56 | Cc1cc(CC(=O)N2C[C@H](O)C[C@H]2C(=O)NCc2cccc(C(F)(F)F)c2)on1 [VL022] |  | ~870 | 
57 | Cc1n[nH]cc1C(=O)N1C[C@H](O)C[C@H]1C(=O)NCc1ccc(Cl)cc1 [VL102] |  | 64.5 | 
58 | Cc1cc(CC(=O)N2C[C@H](O)C[C@H]2C(=O)NCc2ccc(C#N)cc2)on1 [VL088] |  | 18.2 | 
59 | Cc1cc(CC(=O)N2C[C@H](O)C[C@H]2C(=O)NCc2ccc(-c3ncco3)cc2)on1 [VL112] |  | 11.3 | 
60 | Cc1ccc(S(=O)(=O)N2C[C@H](O)C[C@H]2C(=O)Nc2ccc(Br)cc2F)cc1 [VL009] |  |  | Inactive
61 | Cc1c(C(=O)N2C[C@H](O)C[C@H]2C(=O)NCc2ccc(Cl)cc2)cccc1[N+](=O)[O-] [VL066] |  | 72.4 | 
62 | O=C(NCc1ccc(Cl)cc1)[C@@H]1C[C@@H](O)CN1C(=O)c1ccccc1[N+](=O)[O-] [VL065] |  | 74.2 | 
63 | CNC(=O)c1cc(Oc2ccc(NC(=O)[C@@H]3C[C@@H](O)CN3C(=O)Cc3cc(C)no3)cc2)ccn1 [VL027] |  | > 1000 | 
64 | O=C(NCc1cccc(Cl)c1)[C@@H]1C[C@@H](O)CN1S(=O)(=O)c1cccc([N+](=O)[O-])c1 [VL013] |  | 240 | 
65 | Cc1nc(S)sc1CC(=O)N1C[C@H](O)C[C@H]1C(=O)NCc1ccc(Cl)cc1 [VL106] |  | > 1000 | 
66 | Cc1cc(CC(=O)N2C[C@H](O)C[C@H]2C(=O)N[C@H](C)c2ccccc2)on1 [VL033] |  | > 1000 | 
67 | NC(=O)CCC(=O)N1C[C@H](O)C[C@H]1C(=O)NCc1ccc(Cl)cc1 [VL050] |  | 332 | 
